According to patent US20200108043A1, “COMPOUNDS AND COMPOSITIONS FOR EXTENDING LIFESPAN OF A SUBJECT” (YALE UNIVERSITY, priority 2017, published 2020):
Entries after “also recorded” stand apart in the source; their conditions may differ.

Key:
[1] = test system: Saccharomyces cerevisiae; assay: High-Life (High throughput replicative Lifespan measurement) flow cytometry assay in MEP yeast; type: cell-based; conditions: fresh samples from secondary source, 24 hours of culture
[2] = test system: C. elegans; assay: Roundworm (C. elegans) lifespan extension; type: in vivo, Caenorhabditis elegans; conditions: 10 μM in NGM plates, treated for duration of lifespan, vs control
Experimental: Synchronized animals were obtained using the egg-laying method, allowing young […] eggs for 4 hours on bacteria-seeded plates. For each treatment group, 120 synchronized day-1 adults were used. All experiments were carried out at 20° C. Treatment groups were blinded. Nematode growth media (NGM) plates were made for each treatment group: Negative control (DMSO), Mycophenolic Acid (10 μM in DMSO), and Terreic Acid (10 μM in DMSO). The compounds were added to NGM media before pouring the plates. The plates were then dried overnight before moving them to 4° C. to prevent degradation of the compounds. Plates were seeded with 100 μL of 10× concentrated OP50 E. coli, and dried overnight at room temperature. Plates were UV treated with a UVP CL-1000 Ultraviolet Crosslinker, run twice on the energy setting ‘9999’ for about 5 minutes each run. Worms were transferred to new plates every 2-4 days. Viability was scored every day, with death determined by lack of response to a platinum wire. Missing worms, or those that died due to internal hatching were censored.

[3] = biological target: T1, proteasome (Saccharomyces cerevisiae, UniProt P30656); assay: Proteasome assay with fluorogenic substrate Suc-LLVY-AMC on yeast protein extracts; type: biochemical; conditions: wild-type (BY4741) cells, presence vs absence of MPA
T1 construct: with 50 μg of total protein in 200 μL of lysis buffer; endogenous in cells; host or cells: S. cerevisiae BY4741 wild-type or ΔUBR2 cells, glass-bead lysate (total protein extract)
Experimental: For protein extraction, 50 mL of cells were grown for 18 hours to an OD600 of approximately 0.8, then transferred to a 50 mL conical tube and centrifuged at 4255×g for 5 minutes at room temperature. The supernatant was discarded, and the cells were re-suspended in 150 μL of cold lysis buffer (50 mM Tris-HCl, pH 7.5, 0.5 mM EDTA, 5 mM MgCl2, with complete ULTRA mini protease inhibitor tablets, EDTA free) and transferred to a 1.5 mL tube. A ¼ volume of 500-750 μm glass beads (Acros Organics 397641000) was added to each tube. For 10 rounds, the tubes were chilled in ice water for 1 minute, then vortexed at maximum speed for 30 seconds to physically rupture the cells, and returned to the ice water. Samples were then spun for 3 minutes at 2500×g and 4° C., and the supernatant was transferred to a fresh tube. The solution was further clarified by centrifugation at 8000×g for 10 minutes at 4° C., and the supernatant was transferred to a fresh tube. Protein concentration was measured using a Nanodrop measuring the absorbance of the sample at 280 nm.
The proteasome assay used was described in Kruegel, et al. PLoS Genet. 7, (2011). The assay was performed in a 96-well clear-bottom plate (Costar 3603) with 50 μg of total protein in 200 μL of lysis buffer. The fluorogenic proteasome substrate Suc-LLVY-AMC (Bachem 1-1395) was added to a final concentration of 100 μM. Fluorescence intensity with an excitation wavelength of 380 nm and an emission wavelength of 460 nm was recorded at 5-minute intervals using a Neo2 plate reader (BioTek) set to mix constantly and maintain 30° C. Negative control reactions were performed in the presence of 50 μM MG132 (Sigma 474787), a proteasome inhibitor.

## COc1c(C)c2c(c(O)c1C/C=C(\C)CCC(=O)O)C(=O)OC2 [mycophenolic acid]
[1]
  dose-response: cell survival in High-Life: clear concentration-dependent effects
[2]
  lifespan of C. elegans: measurable extension of lifespan; also recorded: statistically significant lifespan extension
[3]
  proteasome activity in wild-type cells: did not activate the proteasome
